{
  "source": "patent US10123993B2",
  "about": "“Cyclic ureas as inhibitors of rock” (BRISTOL-MYERS SQUIBB COMPANY, priority 2015, dated 2018)",
  "note": "Structures can show the parent of a compound that is named as a salt.",
  "data": [
    {"target": "ROCK2 (Homo sapiens, UniProt O75116)", "sequence (O75116 whole entry, species assumed)": "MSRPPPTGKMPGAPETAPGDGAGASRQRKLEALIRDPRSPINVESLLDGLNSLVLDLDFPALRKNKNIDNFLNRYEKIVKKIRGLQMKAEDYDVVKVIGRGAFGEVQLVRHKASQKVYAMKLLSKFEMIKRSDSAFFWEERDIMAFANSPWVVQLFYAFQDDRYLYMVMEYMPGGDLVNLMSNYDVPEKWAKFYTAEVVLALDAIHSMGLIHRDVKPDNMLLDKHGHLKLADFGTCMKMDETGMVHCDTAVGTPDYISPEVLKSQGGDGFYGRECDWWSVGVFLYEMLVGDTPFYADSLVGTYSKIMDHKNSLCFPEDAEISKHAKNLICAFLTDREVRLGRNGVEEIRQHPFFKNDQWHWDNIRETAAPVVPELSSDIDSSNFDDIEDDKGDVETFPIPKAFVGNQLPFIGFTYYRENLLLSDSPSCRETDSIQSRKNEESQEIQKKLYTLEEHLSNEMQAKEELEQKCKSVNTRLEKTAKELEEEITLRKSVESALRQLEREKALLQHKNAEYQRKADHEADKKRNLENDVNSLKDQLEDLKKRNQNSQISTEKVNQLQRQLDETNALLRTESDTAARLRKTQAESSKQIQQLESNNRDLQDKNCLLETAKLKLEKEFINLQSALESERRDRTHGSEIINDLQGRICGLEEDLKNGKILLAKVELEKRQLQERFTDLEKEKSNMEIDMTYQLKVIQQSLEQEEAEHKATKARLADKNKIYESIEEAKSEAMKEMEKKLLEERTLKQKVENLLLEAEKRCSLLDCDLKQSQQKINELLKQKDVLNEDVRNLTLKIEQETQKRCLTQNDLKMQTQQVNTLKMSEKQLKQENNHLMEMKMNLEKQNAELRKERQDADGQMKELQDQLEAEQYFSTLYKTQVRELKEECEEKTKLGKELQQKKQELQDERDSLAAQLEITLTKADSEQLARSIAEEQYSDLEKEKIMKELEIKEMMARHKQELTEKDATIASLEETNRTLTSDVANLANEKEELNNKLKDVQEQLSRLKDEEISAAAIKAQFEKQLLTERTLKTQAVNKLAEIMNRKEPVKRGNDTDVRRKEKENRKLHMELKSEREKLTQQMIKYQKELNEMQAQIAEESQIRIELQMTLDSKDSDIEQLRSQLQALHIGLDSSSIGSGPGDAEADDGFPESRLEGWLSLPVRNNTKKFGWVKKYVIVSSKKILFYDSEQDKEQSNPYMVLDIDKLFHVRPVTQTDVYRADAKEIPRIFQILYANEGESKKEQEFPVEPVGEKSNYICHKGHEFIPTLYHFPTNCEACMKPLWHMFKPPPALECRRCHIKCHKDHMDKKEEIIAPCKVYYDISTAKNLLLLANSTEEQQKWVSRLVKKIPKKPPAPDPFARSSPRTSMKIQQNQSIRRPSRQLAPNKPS", "assay": "ROCK2 kinase inhibition assay (Caliper LABCHIP, FITC peptide substrate)", "assay_type": "biochemical", "details": "5 μM ATP, 1.5 μM peptide substrate; value ranges", "method_in_brief": "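Rho kinase with 5 μM ATP and 1.5 μM FITC-AHA-AKRRRLSSLRA-OH peptide in HEPES pH 7.5, 20 mM MgCl2, 0.015% Brij-35, 4 mM DTT, DMSO <2%. EDTA stop; phospho and non-phospho peptide separated on LabChip. IC50 from dose-response fit.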", "units": {"IC50": "nM"}, "values": [
      {"smiles": "COc1cccc(CN2CCN(c3ccc(-c4ccnc5[nH]ccc45)cc3)C2=O)c1", "note": "[Example 65, 1-(4-(1H-Pyrrolo[2,3-b]pyridin-4-yl)phenyl)-3-(3-methoxybenzyl)imidazolidin-2-one]", "IC50": "2.1 to 20"},
      {"smiles": "COc1ccccc1CCn1ccn(-c2ccc(-c3cn[nH]c3)cc2)c1=O", "note": "[Example 66, 1-(4-(1H-Pyrazol-4-yl)phenyl)-3-(2-methoxyphenethyl)-1H-imidazol-2(3H)-one]", "IC50": "200 to 2000"},
      {"smiles": "O=c1n(Cc2ccc(F)cc2)ccn1-c1ccc(-c2cn[nH]c2)cc1", "note": "[Example 67, 1-(4-(1H-pyrazol-4-yl)phenyl)-3-(4-fluorobenzyl)-1H-imidazol-2(3H)-one]", "IC50": "20.1 to 200"},
      {"smiles": "O=c1n(Cc2c(F)cccc2F)ccn1-c1ccc(-c2cn[nH]c2)cc1", "note": "[Example 68, 1-(4-(1H-pyrazol-4-yl)phenyl)-3-(2,6-difluorobenzyl)-1H-imidazol-2(3H)-one]", "IC50": "20.1 to 200"},
      {"smiles": "O=c1n(Cc2ccccc2F)ccn1-c1ccc(-c2cn[nH]c2)cc1", "note": "[Example 69, 1-(4-(1H-pyrazol-4-yl)phenyl)-3-(2-fluorobenzyl)-1H-imidazol-2(3H)-one]", "IC50": "20.1 to 200"},
      {"smiles": "COc1cccc(CN2CC(=O)N(c3ccc(-c4cn[nH]c4)cc3)C2=O)c1", "note": "[Example 80, 3-(4-(1H-Pyrazol-4-yl)phenyl)-1-(3-methoxybenzyl)imidazolidine-2,4-dione]", "IC50": "20.1 to 200"},
      {"smiles": "O=C1CN(Cc2cccc(F)c2)C(=O)N1c1ccc(-c2cn[nH]c2)cc1", "note": "[Example 81, 3-(4-(1H-pyrazol-4-yl)phenyl)-1-(3-fluorobenzyl)imidazolidine-2,4-dione]", "IC50": "200 to 2000"},
      {"smiles": "O=C1CN(Cc2ccccc2Cl)C(=O)N1c1ccc(-c2cn[nH]c2)cc1", "note": "[Example 82, 3-(4-(1H-pyrazol-4-yl)phenyl)-1-(2-chlorobenzyl)imidazolidine-2,4-dione]", "IC50": "20.1 to 200"},
      {"smiles": "O=C1CN(Cc2cc(F)ccc2F)C(=O)N1c1ccc(-c2cn[nH]c2)cc1", "note": "[Example 83, 3-(4-(1H-pyrazol-4-yl)phenyl)-1-(2,5-difluorobenzyl)imidazolidine-2,4-dione]", "IC50": "200 to 2000"},
      {"smiles": "COc1cc(F)cc(CN2CC(=O)N(c3ccc(-c4cn[nH]c4)cc3)C2=O)c1", "note": "[Example 84, 3-(4-(1H-pyrazol-4-yl)phenyl)-1-(3-fluoro-5-methoxybenzyl)imidazolidine-2,4-dione]", "IC50": "20.1 to 200"},
      {"smiles": "O=C1CN(CCc2ccccc2)C(=O)N1c1ccc(-c2cn[nH]c2)cc1", "note": "[Example 85, 3-(4-(1H-pyrazol-4-yl)phenyl)-1-phenethylimidazolidine-2,4-dione]", "IC50": "200 to 2000"},
      {"smiles": "O=C1CN(Cc2ccccc2F)C(=O)N1c1ccc(-c2cn[nH]c2)cc1", "note": "[Example 86, 3-(4-(1H-pyrazol-4-yl)phenyl)-1-(2-fluorobenzyl)imidazolidine-2,4-dione]", "IC50": "200 to 2000"},
      {"smiles": "O=C1CN(Cc2ccccc2)C(=O)N1c1ccc(-c2cn[nH]c2)cc1", "note": "[Example 87, 3-(4-(1H-pyrazol-4-yl)phenyl)-1-benzylimidazolidine-2,4-dione]", "IC50": "200 to 2000"},
      {"smiles": "COc1cc(N2C(=O)CN(Cc3ccccc3)C2=O)ccc1-c1cn[nH]c1", "note": "[Example 88, 1-benzyl-3-(3-methoxy-4-(1H-pyrazol-4-yl)phenyl)imidazolidine-2,4-dione]", "IC50": "200 to 2000"},
      {"smiles": "COc1cc(N2C(=O)CN(Cc3ccccc3Cl)C2=O)ccc1-c1cn[nH]c1", "note": "[Example 89, 1-(2-chlorobenzyl)-3-(3-methoxy-4-(1H-pyrazol-4-yl)phenyl)imidazolidine-2,4-dione]", "IC50": "200 to 2000"},
      {"smiles": "COc1cc(N2C(=O)CN(Cc3cccc(F)c3)C2=O)ccc1-c1cn[nH]c1", "note": "[Example 90, 1-(3-fluorobenzyl)-3-(3-methoxy-4-(1H-pyrazol-4-yl)phenyl)imidazolidine-2,4-dione]", "IC50": "20.1 to 200"},
      {"smiles": "COc1cc(N2C(=O)CN(Cc3ccccc3F)C2=O)ccc1-c1cn[nH]c1", "note": "[Example 91, 1-(2-fluorobenzyl)-3-(3-methoxy-4-(1H-pyrazol-4-yl)phenyl)imidazolidine-2,4-dione, TFA]", "IC50": "200 to 2000"},
      {"smiles": "COc1cc(N2C(=O)CN(Cc3cc(F)ccc3F)C2=O)ccc1-c1cn[nH]c1", "note": "[Example 92, 1-(2,5-difluorobenzyl)-3-(3-methoxy-4-(1H-pyrazol-4-yl)phenyl)imidazolidine-2,4-dione, TFA]", "IC50": "200 to 2000"},
      {"smiles": "COc1cccc(CN2CC(=O)N(c3ccc(-c4cn[nH]c4)c(OC)c3)C2=O)c1", "note": "[Example 93, 3-(3-methoxy-4-(1H-pyrazol-4-yl)phenyl)-1-(3-methoxybenzyl)imidazolidine-2,4-dione, TFA]", "IC50": "20.1 to 200"},
      {"smiles": "COc1cc(F)cc(CN2CC(=O)N(c3ccc(-c4cn[nH]c4)c(OC)c3)C2=O)c1", "note": "[Example 94, 1-(3-fluoro-5-methoxybenzyl)-3-(3-methoxy-4-(1H-pyrazol-4-yl)phenyl)imidazolidine-2,4-dione, TFA]", "IC50": "20.1 to 200"},
      {"smiles": "CC(c1ccccc1)N1CC(=O)N(c2ccc(-c3cn[nH]c3)cc2)C1=O", "note": "(stereo not drawn) [Example 95, 3-(4-(1H-pyrazol-4-yl)phenyl)-1-(1-phenylethyl)imidazolidine-2,4-dione]", "IC50": "20.1 to 200"},
      {"smiles": "COc1cc(N2C(=O)CN(C(C)c3ccccc3)C2=O)ccc1-c1cn[nH]c1", "note": "(stereo not drawn) [Example 96, 3-(3-methoxy-4-(1H-pyrazol-4-yl)phenyl)-1-(1-phenylethyl)imidazolidine-2,4-dione]", "IC50": "200 to 2000"},
      {"smiles": "COc1cc(N2C(=O)CN(CCc3ccccc3)C2=O)ccc1-c1cn[nH]c1", "note": "[Example 97, 3-(3-methoxy-4-(1H-pyrazol-4-yl)phenyl)-1-phenethylimidazolidine-2,4-dione]", "IC50": "200 to 2000"},
      {"smiles": "COc1cc(N2CC(=O)N(Cc3ccccc3)C2=O)ccc1-c1cn[nH]c1", "note": "[Example 98, 3-Benzyl-1-(3-methoxy-4-(1H-pyrazol-4-yl)phenyl)imidazolidine-2,4-dione]", "IC50": "20.1 to 200"},
      {"smiles": "COc1cc(N2CC(=O)N(Cc3ccccc3F)C2=O)ccc1-c1cn[nH]c1", "note": "[Example 99, 3-(2-fluorobenzyl)-1-(3-methoxy-4-(1H-pyrazol-4-yl)phenyl)imidazolidine-2,4-dione]", "IC50": "20.1 to 200"},
      {"smiles": "COc1cc(N2CC(=O)N(Cc3cccc(F)c3)C2=O)ccc1-c1cn[nH]c1", "note": "[Example 100, 3-(3-fluorobenzyl)-1-(3-methoxy-4-(1H-pyrazol-4-yl)phenyl)imidazolidine-2,4-dione]", "IC50": "20.1 to 200"},
      {"smiles": "COc1cc(F)cc(CN2C(=O)CN(c3ccc(-c4cn[nH]c4)c(OC)c3)C2=O)c1", "note": "[Example 101, 3-(3-fluoro-5-methoxybenzyl)-1-(3-methoxy-4-(1H-pyrazol-4-yl)phenyl) imidazolidine-2,4-dione]", "IC50": "2.1 to 20"},
      {"smiles": "COc1cc(N2CC(=O)N(Cc3c(F)cccc3F)C2=O)ccc1-c1cn[nH]c1", "note": "[Example 102, 3-(2,6-difluoro-benzyl)-1-(3-methoxy-4-(1H-pyrazol-4-yl)phenyl) imidazolidine-2,4-dione]", "IC50": "20.1 to 200"},
      {"smiles": "COc1cc(N2CC(=O)N(CCc3ccccc3)C2=O)ccc1-c1cn[nH]c1", "note": "[Example 103, 1-(3-methoxy-4-(1H-pyrazol-4-yl)phenyl)-3-phenethylimidazolidine-2,4-dione]", "IC50": "20.1 to 200"},
      {"smiles": "COc1cc(N2CC(=O)N(Cc3ccccc3Cl)C2=O)ccc1-c1cn[nH]c1", "note": "[Example 104, 3-(2-chlorobenzyl)-1-(3-methoxy-4-(1H-pyrazol-4-yl)phenyl)imidazolidine-2,4-dione]", "IC50": "20.1 to 200"},
      {"smiles": "COc1cccc(CN2C(=O)CN(c3ccc(-c4cn[nH]c4)c(OC)c3)C2=O)c1", "note": "[Example 105, 1-(3-methoxy-4-(1H-pyrazol-4-yl)phenyl)-3-(3-methoxy-benzyl)imidazolidine-2,4-dione]", "IC50": "2.1 to 20"},
      {"smiles": "COc1cc(N2CC(=O)N(C(C)c3ccccc3)C2=O)ccc1-c1cn[nH]c1", "note": "(stereo not drawn) [Example 106, 1-(3-methoxy-4-(1H-pyrazol-4-yl)phenyl)-3-(1-phenylethyl) imidazolidine-2,4-dione]", "IC50": "20.1 to 200"},
      {"smiles": "COc1cc(F)cc(CN2C(=O)CN(c3ccc(-c4cn[nH]c4)cc3)C2=O)c1", "note": "[Example 107, 1-(4-(1H-pyrazol-4-yl)phenyl)-3-(3-fluoro-5-methoxy-benzyl)imidazolidine-2,4-dione]", "IC50": "2.1 to 20"},
      {"smiles": "O=C1CN(c2ccc(-c3cn[nH]c3)cc2)C(=O)N1Cc1c(F)cccc1F", "note": "[Example 108, 1-(4-(1H-pyrazol-4-yl)phenyl)-3-(2,6-difluorobenzyl) imidazolidine-2,4-dione]", "IC50": "200 to 2000"},
      {"smiles": "CC(c1ccccc1)N1C(=O)CN(c2ccc(-c3cn[nH]c3)cc2)C1=O", "note": "(stereo not drawn) [Example 109, 1-(4-(1H-pyrazol-4-yl)phenyl)-3-(1-phenylethyl) imidazolidine-2,4-dione]", "IC50": "200 to 2000"},
      {"smiles": "O=C1CN(c2ccc(-c3cn[nH]c3)cc2)C(=O)N1Cc1ccccc1", "note": "[Example 110, 1-(4-(1H-pyrazol-4-yl)phenyl)-3-benzyl-imidazolidine-2,4-dione]", "IC50": "20.1 to 200"},
      {"smiles": "O=C1CN(c2ccc(-c3cn[nH]c3)cc2)C(=O)N1Cc1ccccc1Cl", "note": "[Example 111, 1-(4-(1H-pyrazol-4-yl)phenyl)-3-(2-chlorobenzyl) imidazolidine-2,4-dione]", "IC50": "2.1 to 20"},
      {"smiles": "COc1cccc(CN2C(=O)CN(c3ccc(-c4cn[nH]c4)cc3)C2=O)c1", "note": "[Example 112, 1-(4-(1H-pyrazol-4-yl)phenyl)-3-(3-methoxybenzyl) imidazolidine-2,4-dione]", "IC50": "< 2"},
      {"smiles": "O=C1CN(c2ccc(-c3cn[nH]c3)cc2)C(=O)N1CCc1ccccc1", "note": "[Example 113, 1-(4-(1H-pyrazol-4-yl)phenyl)-3-phenethyl-imidazolidine-2,4-dione]", "IC50": "20.1 to 200"},
      {"smiles": "O=C1CN(c2ccc(-c3cn[nH]c3)cc2)C(=O)N1Cc1cccc(F)c1", "note": "[Example 114, 1-(4-(1H-pyrazol-4-yl)phenyl)-3-(3-fluoro-benzyl)imidazolidine-2,4-dione]", "IC50": "20.1 to 200"},
      {"smiles": "O=C1CN(c2ccc(-c3cn[nH]c3)cc2)C(=O)N1Cc1cc(F)ccc1F", "note": "[Example 115, 1-(4-(1H-pyrazol-4-yl)phenyl)-3-(2,5-difluorobenzyl) imidazolidine-2,4-dione]", "IC50": "20.1 to 200"},
      {"smiles": "COc1cccc(CN2CCN(c3ccc(-c4cn[nH]c4)cc3)C2=O)c1F", "note": "[Example 116, 1-(4-(1H-Pyrazol-4-yl)phenyl)-3-(2-fluoro-3-methoxybenzyl)imidazolidin-2-one]", "IC50": "20.1 to 200"}
    ]}
  ]
}
